From article PMC11052077, “Discovery of Dolutegravir Derivative against Liver Cancer via Inducing Autophagy and DNA Damage” (Molecules, 2024)

Columns and labels:
[1] = tested on: HRM cells (human renal mesangial cells); test: in vitro; format: cell-based; conditions: 20 µM
Procedure: This study aimed to assess the anti-proliferative activity of dolutegravir-1,2,3-triazole derivatives on hepatocellular carcinoma cell lines, Huh7 and hepG2. A comprehensive CCK8 assay was employed to evaluate the impact of these compounds on cell viability, with cells treated at a concentration of 20 μM for 48 h. HRM cells, a normal cell line, were included as a control for comparative analysis. […]
(§1) CCK8 assay was used to measure cell viability. Cells with a density of 1 × 10^4 cells/well were seeded on 96-well plates. After adhesion, cells were treated with different diluted compounds or vehicle control DMSO and continued to be cultured for 48 h or 72 h, respectively. Then, CCK8 reagent was added for one hour incubation at 37 °C with 5% CO2. Absorbance was measured using a Microplate spectrophotometer (Thermo, Waltham, MA, USA) at 450 nm. The ratio of cell viability of control was taken as 100%. […] Then, IC50 of compounds were investigated using the prism statistical software 7.0.

hepG2 cells = test: CCK8 cell viability assay, hepG2; format: cell-based, human; conditions: for Cell Viability (100%), 20 μM, 48 h, hepG2: hepG2, CCK8, control taken as 100%; for IC50: 48 h, hepG2, CCK8, read-out: half maximal inhibitory concentration (IC50), hepG2
Procedure: (§2) This study aimed to assess the anti-proliferative activity of dolutegravir-1,2,3-triazole derivatives on hepatocellular carcinoma cell lines, Huh7 and hepG2. A comprehensive CCK8 assay was employed to evaluate the impact of these compounds on cell viability, with cells treated at a concentration of 20 μM for 48 h. HRM cells, a normal cell line, were included as a control for comparative analysis.
(§3) Human hepatocellular carcinoma cell lines Huh7 and hepG2 were obtained from ATCC (Manassas, VA, USA). Cells were cultured in DMEM or RPMI 1640 medium containing 10% FBS and 1% penicillin/streptomycin at 37 °C with a 5% CO2-humidified atmosphere.
as §1

Huh7 cells = test: CCK8 cell viability assay, Huh7; format: cell-based, human; conditions: for Cell Viability (100%), 20 μM, 48 h, Huh7: Huh7, CCK8, control taken as 100%; for IC50: 48 h, Huh7, CCK8, read-out: half maximal inhibitory concentration (IC50), Huh7
Procedure: as §2, §3, §1

Row | IC50 (hepG2 cells) [µM] | IC50 (Huh7 cells) [µM] | SMILES | Cell Viability (100%), 20 μM, 48 h, HRM [1] [%] | Cell Viability (100%), 20 μM, 48 h, hepG2 (hepG2 cells) [%] | Cell Viability (100%), 20 μM, 48 h, Huh7 (Huh7 cells) [%]
1 |  |  | COc1c2n(cc(C(=O)Nc3cccc(-c4cn(-c5ccc(F)cc5)nn4)c3)c1=O)CC1OCCC(C)N1C2=O (stereo not drawn) [Compound 5g] | 103.67 | 105.19 | 90.24
2 | 18.3 ± 1.14 | 18.7 ± 0.53 | COc1c2n(cc(C(=O)Nc3cccc(-c4cn(-c5ccccc5C(F)(F)F)nn4)c3)c1=O)CC1OCCC(C)N1C2=O (stereo not drawn) [Compound 5c] | 2.65 | 54.14 | 36.28
3 |  |  | COc1c2n(cc(C(=O)Nc3cccc(-c4cn(-c5ccccc5F)nn4)c3)c1=O)CC1OCCC(C)N1C2=O (stereo not drawn) [Compound 5a] | 71.18 | 90.43 | 83.32
4 | 19.7 ± 2.19 | 16.2 ± 0.37 | COc1c2n(cc(C(=O)Nc3cccc(-c4cn(Cc5cccc(Br)c5)nn4)c3)c1=O)CC1OCCC(C)N1C2=O (stereo not drawn) [Compound 6e] | 102.27 | 55.14 | 20.45
5 |  |  | COc1ccc(-n2cc(-c3cccc(NC(=O)c4cn5c(c(OC)c4=O)C(=O)N4C(C)CCOC4C5)c3)nn2)cc1OC (stereo not drawn) [Compound 5j] | 108.54 | 77.13 | 65.52
6 |  |  | COc1cc([N+](=O)[O-])ccc1-n1cc(-c2cccc(NC(=O)c3cn4c(c(OC)c3=O)C(=O)N3C(C)CCOC3C4)c2)nn1 (stereo not drawn) [Compound 5b] | 112.94 | 93.94 | 110.94
7 | 11.2 ± 0.32 | 10.8 ± 0.85 | COc1ccccc1-n1cc(-c2cccc(NC(=O)c3cn4c(c(OC)c3=O)C(=O)N3C(C)CCOC3C4)c2)nn1 (stereo not drawn) [Compound 5t] | 73.24 | 41.93 | 29.33
8 | 27.8 ± 2.94 | 13.9 ± 0.81 | COc1c2n(cc(C(=O)Nc3cccc(-c4cn(Cc5ccccc5Br)nn4)c3)c1=O)CC1OCCC(C)N1C2=O (stereo not drawn) [Compound 6c] | 105.55 | 46.80 | 39.13
9 |  |  | COc1cccc(Cn2cc(-c3cccc(NC(=O)c4cn5c(c(OC)c4=O)C(=O)N4C(C)CCOC4C5)c3)nn2)c1 (stereo not drawn) [Compound 6d] | 98.59 | 65.65 | 72.78
10 |  |  | COc1c2n(cc(C(=O)Nc3cccc(-c4cn(Cc5ccccc5C)nn4)c3)c1=O)CC1OCCC(C)N1C2=O (stereo not drawn) [Compound 6g] | 101.52 | 52.95 | 39.11
11 |  |  | COc1c2n(cc(C(=O)Nc3cccc(-c4cn(-c5cc(C(F)(F)F)cc(C(F)(F)F)c5)nn4)c3)c1=O)CC1OCCC(C)N1C2=O (stereo not drawn) [Compound 5r] | 101.27 | 78.52 | 80.13
12 |  |  | COc1c2n(cc(C(=O)Nc3cccc(-c4cn(Cc5cc(Br)cc(Br)c5)nn4)c3)c1=O)CC1OCCC(C)N1C2=O (stereo not drawn) [Compound 6a] | 84.46 | 66.48 | 75.97
13 |  |  | COc1c2n(cc(C(=O)Nc3cccc(-c4cn(-c5ccc(C(F)(F)F)cc5)nn4)c3)c1=O)CC1OCCC(C)N1C2=O (stereo not drawn) [Compound 5d] | 108.43 | 79.96 | 77.89
14 | 12.1 ± 0.77 | 8.63 ± 0.33 | COc1c2n(cc(C(=O)Nc3cccc(-c4cn(-c5cccc(C)c5)nn4)c3)c1=O)CC1OCCC(C)N1C2=O (stereo not drawn) [Compound 5f] | 66.43 | 12.96 | 15.92
15 |  |  | COc1c2n(cc(C(=O)Nc3cccc(-c4cn(Cc5ccccc5F)nn4)c3)c1=O)CC1OCCC(C)N1C2=O (stereo not drawn) [Compound 6f] | 102.19 | 63.23 | 54.58
16 | 24.8 ± 2.21 | 42.2 ± 1.1 | COc1c2n(cc(C(=O)Nc3cccc(-c4cn(-c5ccccc5Cl)nn4)c3)c1=O)CC1OCCC(C)N1C2=O (stereo not drawn) [Compound 5v] | 95.10 | 38.75 | 37.66
17 |  |  | CCc1ccc(-n2cc(-c3cccc(NC(=O)c4cn5c(c(OC)c4=O)C(=O)N4C(C)CCOC4C5)c3)nn2)cc1 (stereo not drawn) [Compound 5m] | 101.13 | 77.30 | 36.41
18 |  |  | COc1c2n(cc(C(=O)Nc3cccc(-c4cn(Cc5ccccc5)nn4)c3)c1=O)CC1OCCC(C)N1C2=O (stereo not drawn) [Compound 6b] | 99.53 | 57.81 | 68.00
19 |  |  | COc1c2n(cc(C(=O)Nc3cccc(-c4cn(Cc5ccccc5C(F)(F)F)nn4)c3)c1=O)CC1OCCC(C)N1C2=O (stereo not drawn) [Compound 6h] | 93.73 | 66.45 | 50.37
20 |  |  | COc1c2n(cc(C(=O)Nc3cccc(-c4cn(-c5c(C)cc(C)cc5C)nn4)c3)c1=O)CC1OCCC(C)N1C2=O (stereo not drawn) [Compound 5z] | 100.35 | 63.22 | 66.22
21 |  |  | COc1c2n(cc(C(=O)Nc3cccc(-c4cn(-c5ccc(C)cc5)nn4)c3)c1=O)CC1OCCC(C)N1C2=O (stereo not drawn) [Compound 5y] | 103.82 | 69.40 | 79.52
22 | 18.5 ± 2.85 | 7.85 ± 0.9 | COc1c2n(cc(C(=O)Nc3cccc(-c4cn(-c5cc(C(F)(F)F)ccc5C(F)(F)F)nn4)c3)c1=O)CC1OCCC(C)N1C2=O (stereo not drawn) [Compound 5q] | 91.40 | 38.49 | 12.00
23 | 25.7 ± 0.42 | 15.9 ± 0.31 | COc1c2n(cc(C(=O)Nc3cccc(-c4cn(-c5ccccc5I)nn4)c3)c1=O)CC1OCCC(C)N1C2=O (stereo not drawn) [Compound 5w] | 92.77 | 54.35 | 49.87
24 | 9.43 ± 0.7 | 12.3 ± 0.26 | COc1c2n(cc(C(=O)Nc3cccc(-c4cn(-c5ccccc5OC(F)(F)F)nn4)c3)c1=O)CC1OCCC(C)N1C2=O (stereo not drawn) [Compound 5i] | 70.03 | 24.84 | 7.95
25 |  |  | CCOc1ccc(-n2cc(-c3cccc(NC(=O)c4cn5c(c(OC)c4=O)C(=O)N4C(C)CCOC4C5)c3)nn2)cc1 (stereo not drawn) [Compound 5h] | 102.23 | 90.41 | 72.06
26 | 10.6 ± 0.67 | 7.62 ± 1.03 | COc1cccc(-n2cc(-c3cccc(NC(=O)c4cn5c(c(OC)c4=O)C(=O)N4C(C)CCOC4C5)c3)nn2)c1 (stereo not drawn) [Compound 5l] | 94.97 | 33.91 | 46.30
27 | 34.7 ± 5.13 | 12.6 ± 0.58 | COc1c2n(cc(C(=O)Nc3cccc(-c4cn(-c5ccccc5Br)nn4)c3)c1=O)CC1OCCC(C)N1C2=O (stereo not drawn) [Compound 5u] | 100.10 | 47.16 | 33.46
28 | 15.2 ± 1.15 | 16.9 ± 0.48 | CCc1ccccc1-n1cc(-c2cccc(NC(=O)c3cn4c(c(OC)c3=O)C(=O)N3C(C)CCOC3C4)c2)nn1 (stereo not drawn) [Compound 5k] | 0.81 | 50.62 | 48.55
29 |  |  | COc1c2n(cc(C(=O)Nc3cccc(-c4cn(-c5ccc(C(C)(C)C)cc5)nn4)c3)c1=O)CC1OCCC(C)N1C2=O (stereo not drawn) [Compound 5n] | 108.06 | 77.30 | 54.04
30 |  |  | COc1c2n(cc(C(=O)Nc3cccc(-c4cn(-c5ccccc5)nn4)c3)c1=O)CC1OCCC(C)N1C2=O (stereo not drawn) [Compound 5o] | 100.28 | 80.21 | 67.64
